pIC50: −log10 of the molar value.
Experiments:
Hlr c-Jun HeLa cells = test: C-Jun reporter assay (Dual-Luciferase); format: cell-based; settings: Homo sapiens, Hlr c-Jun HeLa cells transfected with pMEKK1
Description: Hlr c-Jun HeLa cells are cultured in DMEM High Glc supplemented with 10% FCS (Sigma), 2 mM Glutamine (Gibco), P/S, Hygromycin b 100 μg/mL and G418 250 μg/mL
The cell suspension are diluted with medium to give about 3.5×10^6 cells/mL and 1 mL of cell suspension are put onto 2 10 cm culture dishes containing 9 mL of culture medium.
• Control: 0.2 μg pTK Renilla, 5.8 μg pBluescript KS, 500 μl OPTIMEM (GIBCO), 18 μl Fugene 6 • Induced: 0.1 μg pMEKK1, 0.2 μg pTK Renilla, 5.7 μg pBluescript KS, 500 μl OPTIMEM (GIBCO), 18 μl Fugene 6 30′ RT
The transfection mixture is added to the plated cells. The plates are incubated over night at 37° C. in a humidified atmosphere of 5% CO2 in air
A 96 wells plate containing 100 μl of culture medium per well is prepared
Negative control (vehicle): 2 μl of DMSO is added to the 100 μl (in triplicate).
Compound: 2 μl of Hit compound stock dilution are added to the 100 μl (in triplicate).
The transfected cells are trypsinised and ressuspend in 12 mL of culture medium.
100 μl of the dilution are added to each of the 96 wells plate.
The plate is incubated over night at 37° C. in a humidified atmosphere of 5% CO2 in air
Dual-Luciferase™ Reporter Assay System (Promega)
The medium is removed from the plate and the cells washed two times with 100 μl PBS Completely remove the rinse solution before applying PLB reagent. Dispense into each culture well […] of 1×PLB. Place the culture plates on a rocking platform or orbital shaker with gentle
rocking/shaking to ensure complete and even coverage of the cell monolayer with 1×PLB. Rock the culture plates at room temperature for 15 minutes. Transfer 20 μl of the lysate into a white opaque 96 wells plate. Read in a luminometer.
• Inject 50 μl of Luciferase Assay Reagent II wait 5″, read 10″ • Inject 50 μl of Stop & Glo® Reagent wait 5″, read 10″ Check RLU Luciferase/RLU Renilla *1000

ERK2 = ERK2 (Homo sapiens, UniProt P28482); test: ERK2 in vitro kinase assay (SPA, myelin basic protein substrate); format: biochemical; settings: amount necessary to achieve 50% inhibition
Sequence of ERK2 (P28482 whole entry, species assumed): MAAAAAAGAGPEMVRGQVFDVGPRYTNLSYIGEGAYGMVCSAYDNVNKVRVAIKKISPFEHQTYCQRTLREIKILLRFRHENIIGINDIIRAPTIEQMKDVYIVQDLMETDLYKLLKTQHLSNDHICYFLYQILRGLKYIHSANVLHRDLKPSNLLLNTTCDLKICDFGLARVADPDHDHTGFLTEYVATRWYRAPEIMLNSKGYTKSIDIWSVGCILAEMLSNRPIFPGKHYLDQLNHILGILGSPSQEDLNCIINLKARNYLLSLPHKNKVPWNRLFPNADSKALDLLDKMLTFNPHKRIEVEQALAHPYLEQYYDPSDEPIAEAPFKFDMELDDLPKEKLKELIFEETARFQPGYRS
Description: (§1) JNK 2 and 3 in vitro assays: JNK3 and/or 2 assays are performed in 96 well MTT plates, by incubation of 0.5 μg of recombinant pre-activated GST-JNK or GST-JNK2 with 1 μg of recombinant, biotinylated GST-c-Jun and 2 μM ^33γ-ATP (2 nCi/μl), in the to presence or absence of sulfonamide inhibitors if formula I and in a reaction volume of 50 μl containing 50 mM Tris-HCl, pH 8.0; 10 mM MgCl2; 1 mM Dithiothreitol, and 100 μM NaVO4. The incubation is performed for 120 min. at R.T and stopped upon addition of 200 μl of a solution containing 250 μg of Streptavidine-coated SPA beads (Amersham, Inc.)^•, 5 mM EDTA, 0.1% Triton X-100 and 50 μM ATP, in phosphate saline buffer. After incubation for 60 minutes at RT, beads are sedimented by centrifugation at 1500×g for 5 minutes, resuspended in 200 μl of PBS containing 5 mM EDTA, 0.1% Triton X-100 and 50 μM ATP and the radioactivity measured in a scintillation β counter, following sedimentation of the beads as described above. By substituting GST-c Jun for biotinylated GST-1ATF2 or myelin basic protein, this assay can be used to measure inhibition of preactivated p38 and ERK MAP Kinases, respectively.
(§2) The values indicated in respect of JNK2 and 3, p38 and ERK2 refer to the IC50 (μM), i.e. the amount necessary to achieve 50% inhibition of said target (e.g. JNK2). From the above table it could be derived that said test compounds according to formula I do have a significant effect both on JNK2 and 3, but virtually no effect onto p38 and ERK2, thus delivering a quite selective inhibitory effect.

p38 = p38 (Homo sapiens, UniProt Q16539); test: p38 in vitro kinase assay (SPA, GST-ATF2 substrate); format: biochemical; settings: amount necessary to achieve 50% inhibition
Sequence of p38 (Q16539 whole entry): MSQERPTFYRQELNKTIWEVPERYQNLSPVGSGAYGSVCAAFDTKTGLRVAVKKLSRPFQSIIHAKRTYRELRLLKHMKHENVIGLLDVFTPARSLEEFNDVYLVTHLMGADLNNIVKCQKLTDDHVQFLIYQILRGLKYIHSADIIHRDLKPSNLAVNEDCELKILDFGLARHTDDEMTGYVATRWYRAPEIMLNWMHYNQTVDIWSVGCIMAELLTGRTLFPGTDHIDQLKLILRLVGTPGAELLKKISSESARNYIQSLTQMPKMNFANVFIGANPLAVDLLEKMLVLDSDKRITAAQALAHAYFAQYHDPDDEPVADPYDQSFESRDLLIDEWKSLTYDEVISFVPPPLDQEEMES
Description: as §1, §2

JNK3 = JNK3 (Homo sapiens, UniProt P53779); test: JNK3 in vitro assay (SPA, GST-c-Jun phosphorylation); format: biochemical; settings: amount necessary to achieve 50% inhibition, GST-c-Jun substrate
Sequence of JNK3 (P53779 whole entry, species assumed): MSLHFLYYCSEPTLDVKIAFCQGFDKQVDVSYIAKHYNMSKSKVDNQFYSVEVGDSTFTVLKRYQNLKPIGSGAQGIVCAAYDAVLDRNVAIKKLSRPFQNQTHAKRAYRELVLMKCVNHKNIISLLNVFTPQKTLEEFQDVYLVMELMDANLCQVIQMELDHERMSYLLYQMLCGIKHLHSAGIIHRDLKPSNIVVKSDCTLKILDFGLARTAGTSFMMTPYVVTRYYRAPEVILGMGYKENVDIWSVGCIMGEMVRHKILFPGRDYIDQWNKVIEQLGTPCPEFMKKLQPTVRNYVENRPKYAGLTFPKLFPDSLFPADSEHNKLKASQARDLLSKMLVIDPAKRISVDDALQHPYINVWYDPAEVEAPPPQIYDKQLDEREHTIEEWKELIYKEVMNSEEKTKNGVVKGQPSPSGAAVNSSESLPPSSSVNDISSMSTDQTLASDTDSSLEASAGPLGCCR
Description: as §1, §2

[1] = system: IL-2 release by PMA+Iono-stimulated Jurkat cells; test: IL-2 release assay (ELISA); format: cell-based; settings: Homo sapiens, PMA+Ionomycine-stimulated Jurkat cells, 24 hours, read-out: % Inhibition of IL2 Production @3 uM
Description: Jurkat cells, a human T cell leukemia cell line (American Type Culture Collection # TIB 152) were cultured in RPMI 1640 medium (Gibco, BRL) supplemented with 10% of […] FCS, Glutamine and Penstrep. The cell suspension in the medium is diluted to give 2.10^6 cells/mL. The cells were plated (2.10^5 cells/well) on a 96-well plate containing different concentration of test compound (final concentration of compounds, 10, 3, 1, […], 0.1 μM). This mixture is incubated 30 minutes at 37° C. in a humidified CO2 atmosphere. Cells were then treated with 10 ul PMA+Ionomycine (0.1 μM and 1 μM final concentration) in all wells except negative control. In wells without compounds, 10 μl of RPMI 2% DMSO (=0.1% final) is added. Cells are incubated 24 hours at 37° C. and then the supernatant harvested (freeze at −20° C. if not used the same day) prior to performing IL-2 ELISA test on the supernatant.
IL-2 release into the medium by PMA+Iono-stimulated Jurkat cells, in presence or absence of test compounds is assayed by ELISA. Following the procedure described below
Transfer 100 μl capture antibody diluted in PBS at 5 μg/mL into a 96 well ELISA plate and incubate overnight at room temperature.
Aspirate each well and wash 3 times with Wash buffer. After the last wash, damp the plate.
1. Saturate with 200 μl PBS-10% FCS. Incubate 1 hour at room temperature.
2. Repeat the wash step 2.
• 1. Add 100 μl of sample or standard ([…]) and incubate 2 hours at room temperature. • 2. Wash 3 times. • 3. Add 100 μl of biotinylated anti-human IL-2 at 12.5 ng/mL. Incubate 2 hours at room temperature. • 4. Wash 3 times. • 5. Add 100 μl streptavidin-HRP (Zymed #43-4323) at 1:10′000. Incubate 30 minutes at room temperature. • 6. Wash 3 times • 7. Add 100 μl substrate solution (citric acid/Na2HPO4 (1:1)+H2O2 1:2000+OPD). Incubate 20-30 minutes at room temperature. • 8. Add 50 μl of stop solution to each well. • 9. Determine optical density using a microliter plate reader set to 450 nm with correction at 570 nm.

JNK2 = JNK2 (Homo sapiens, UniProt P45984); test: JNK2 in vitro assay (SPA, GST-c-Jun phosphorylation); format: biochemical; settings: amount necessary to achieve 50% inhibition, GST-c-Jun substrate
Sequence of JNK2 (P45984 whole entry, species assumed): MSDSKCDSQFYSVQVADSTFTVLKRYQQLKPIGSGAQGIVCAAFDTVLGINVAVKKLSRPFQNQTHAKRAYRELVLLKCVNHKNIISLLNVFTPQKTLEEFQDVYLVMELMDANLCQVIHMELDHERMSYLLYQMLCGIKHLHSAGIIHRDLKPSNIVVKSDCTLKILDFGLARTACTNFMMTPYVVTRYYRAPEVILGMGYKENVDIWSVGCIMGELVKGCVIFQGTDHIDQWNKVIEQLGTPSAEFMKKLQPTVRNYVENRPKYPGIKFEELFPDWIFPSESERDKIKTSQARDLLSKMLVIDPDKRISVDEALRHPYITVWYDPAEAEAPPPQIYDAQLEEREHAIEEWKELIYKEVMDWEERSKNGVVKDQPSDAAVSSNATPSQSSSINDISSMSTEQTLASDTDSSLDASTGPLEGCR
Description: as §1, §2

| pIC50 (ERK2) | pIC50 (p38) | pIC50 (JNK3) | pIC50 (JNK2) | Structure (SMILES) | inhibition at 10 µM (Hlr c-Jun HeLa cells) [%] | inhibition at 3 µM [1] [%] |
| --- | --- | --- | --- | --- | --- | --- |
| < 4.52 | < 4.52 | 6.17 | 5.92 | O=C(NCc1ccc(S(=O)(=O)N2CCC(C(=O)c3ccc(F)cc3F)CC2)s1)c1ccc(Cl)cc1 [Example 37, 4-chloro-N-[(5-{[4-(2,4-difluorobenzoyl)piperidin-1-yl]sulfonyl}thien-2-yl)methyl]benzamide] | > 30 | > 30 |
| < 4.52 | < 4.52 | 6.07 | 5.89 | O=C(NCc1ccc(S(=O)(=O)N2CCCN(C(=O)Cc3ccccc3)CC2)s1)c1ccc(Cl)cc1 [Example 84, 4-chloro-N-[(5-{[4-(phenylacetyl)-1,4-diazepan-1-yl]sulfonyl}thien-2-yl)methyl]benzamide] | > 30 | > 30 |
| < 4.52 | < 4.52 | 6.10 | 5.98 | O=C(NCc1ccc(S(=O)(=O)N2CCC(Nc3ccccc3)CC2)s1)c1ccc(Cl)cc1 [Example 86, N-({5-[(4-anilinopiperidin-1-yl)sulfonyl]thien-2-yl}methyl)-4-chlorobenzamide] | > 30 | > 30 |
| < 4.52 | < 4.52 | 6.15 | 5.65 | O=C(NCc1ccc(S(=O)(=O)N2CCC(Nc3cccc(S(=O)(=O)CCO)c3)CC2)s1)c1ccc(Cl)cc1 [Example 131, 4-chloro-N-({5-[(4-{3-[(2-hydroxyethyl)sulfonyl]-anilino}piperidin-1-yl)sulfonyl]thien-2-yl}methyl)-benzamide] | > 30 | > 30 |
| < 4.52 | < 4.52 | 6.05 | 5.92 | O=C(NCc1ccc(S(=O)(=O)N2CCN(C(=O)c3cccc4ccccc34)CC2)s1)c1ccc(Cl)cc1 [Example 168, 4-chloro-N-[(5-{[4-(1-naphthoyl)piperazin-1-yl]sulfonyl}thien-2-yl)methyl]benzamide] | > 30 | > 30 |
| < 4.52 | < 4.52 | 6.57 | 6.41 | COC(=O)c1cccc(NC2CCN(S(=O)(=O)c3ccc(CNC(=O)c4ccc([N+](=O)[O-])cc4)s3)CC2)c1 [Example 211, methyl 3-{[1-({5-[({4-nitrobenzoyl}amino)methyl]thien-2-yl}sulfonyl)piperidin-4-yl]amino}benzoate] | > 30 | > 30 |
| < 4.52 | < 4.52 | 6.44 | 6.66 | O=C(NCc1ccc(S(=O)(=O)N2CCC(n3nnc4ccccc43)CC2)s1)c1ccccc1O [Example 271, N-[(5-{[4-(1H-1,2,3-benzotriazol-1-yl)piperidin-1-yl]sulfonyl}thien-2-yl)methyl]-2-hydroxybenzamide] | > 30 | > 30 |
| < 4.52 | < 4.52 | 6.72 | 6.64 | COc1cccc(C(=O)NCc2ccc(S(=O)(=O)N3CCC(Nc4ccccc4[N+](=O)[O-])CC3)s2)c1 [Example 285, N-({5-[(4-{2-nitroanilino}piperidin-1-yl)sulfonyl]thien-2-yl}methyl)-3-methoxybenzamide] | > 30 | > 30 |

Second part, the compound before the results:

| Structure (SMILES) | pIC50 (ERK2) | pIC50 (p38) | pIC50 (JNK3) | pIC50 (JNK2) | inhibition at 10 µM (Hlr c-Jun HeLa cells) [%] | inhibition at 3 µM [1] [%] |
| --- | --- | --- | --- | --- | --- | --- |
| O=C(NCc1ccc(S(=O)(=O)N2CCC(n3nnc4ccccc43)CC2)s1)c1ccc(Cl)cc1 [Example 91, N-[(5-{[4-(1H-1,2,3-benzotriazol-1-yl)piperidin-1-yl]sulfonyl}thien-2-yl)methyl]-4-chlorobenzamide] | < 4.52 | < 4.52 | 6.82 | 6.19 | > 30 | > 30 |
| O=C(NCc1ccc(S(=O)(=O)N2CCC(n3cnc4ccccc43)CC2)s1)c1ccc(Cl)cc1 [Example 109, N-[(5-{[4-(1H-benzimidazol-1-yl)piperidin-1-yl]sulfonyl}thien-2-yl)methyl]-4-chlorobenzamide] | < 4.52 | < 4.52 | 6.64 | 6.23 | > 30 | > 30 |
| O=C(NCc1ccc(S(=O)(=O)N2CCC(Nc3ccc(Cl)cc3)CC2)s1)c1ccc(Cl)cc1 [Example 120, 4-chloro-N-[(5-{[4-(4-chloroanilino)piperidin-1-yl]sulfonyl}thien-2-yl)methyl]benzamide] | < 4.52 | < 4.52 | 6.40 | 6.25 | > 30 | > 30 |
| NS(=O)(=O)c1cccc(NC2CCN(S(=O)(=O)c3ccc(CNC(=O)c4ccc(Cl)cc4)s3)CC2)c1 [Example 155, N-{[5-({4-[3-(aminosulfonyl)anilino]piperidin-1-yl}sulfonyl)thien-2-yl]methyl}-4-chlorobenzamide] | < 4.52 | < 4.52 | 6.28 | 6.30 | > 30 | > 30 |
| COc1cccc(NC2CCN(S(=O)(=O)c3ccc(CNC(=O)c4ccc([N+](=O)[O-])cc4)s3)CC2)c1 [Example 204, 4-nitro-N-[(5-{[4-(3-methoxyanilino)piperidin-1-yl]sulfonyl}thien-2-yl)methyl]-benzamide] | < 4.52 | < 4.52 | 6.77 | 6.66 | > 30 | > 30 |
